Results on 86 compounds are retold here after a melting point compilation (Tetko et al.; mined from patent text by program, amines drawn as free bases though some values may be those of a salt).

Structures are written as SMILES. Where only a bound is given, the exact number is not on record here.

For the compound `COc1cc2c(cc1F)C(=O)c1cc3ccccc3cc1C2=O`, the melting point (as a rule, the temperature, or range, at which the solid turns liquid) was more than 250 °C.
Compound `C=C(C=O)c1ccc(C)cc1[N+](=O)[O-]` showed a melting point of 58.5 to 60 °C.
To `CCCCc1nc(C(C)(O)CC)c(C#N)n1C(c1ccccc1)(c1ccccc1)c1ccccc1` (stereo unspecified) belongs 90 to 93 °C.
`CCCNC(=O)[C@@H](C)NC(=O)OCc1ccccc1` registered a melting point of 116 to 120 °C.
Compound `Cc1oc(-c2ccccc2)nc1CNC(=O)c1ccc(Cn2cc(CCC(=O)O)c(-c3ccccc3)n2)cc1` displayed a melting point of 177 to 178 °C.
In turn, `CC1(C)NC(=O)N(c2ccc(F)c(C(F)(F)F)c2)C1=O` registered a melting point of 111 to 114 °C.
Take `CCCn1c(=O)c2c(NC)n[nH]c2n(CCOCc2ccccc2)c1=O`: the melting point was 224 to 226 °C.
For the compound `O=C(CC1c2cc(Cl)ccc2S(=O)(=O)N1c1ccccc1)NO` (stereo unspecified), the melting point lay in the range of 192 to 194 °C.
Turning to `Fc1ccc(-c2cc(CNc3cc(C4CC=CS4)n[nH]3)n[nH]2)cc1` (stereo unspecified), the melting point was 128 to 130 °C.
As for `O=C(OCc1ccccc1)c1ccc(OC(=O)c2ccccc2C(=O)Oc2ccc(C(=O)OCc3ccccc3)cc2)cc1`, the melting point fell in the range of 100 to 103 °C.
With `O=C1CC(/C=C/c2ccccc2)=Nc2ccccc2N1Cc1ccccc1`, the melting point was in the range of 150 to 151 °C.
To `CNS(=O)(=O)Nc1cc(-c2nn(C)c(OC(F)F)c2Cl)c(Cl)cc1Cl` belongs 133 °C.
As for `CC(C)(C)c1nc2cc(N3CCCCC3)c([N+](=O)[O-])cc2s1`, the melting point is 147 to 148 °C.
In turn, `CC(=O)C1=C(O)C(=C(C)Nc2cccc(NS(C)(=O)=O)c2)C(=O)OC1=O` registered a melting point of 196 °C.
In turn, `Cc1ccc(C(=O)NCCc2ccccc2Cl)cc1` had a melting point of 106 to 108 °C.
In turn, `CCc1c(C)nc2n(c1=O)C(C)CCC2=NNc1ccccc1` (stereo unspecified) displayed a melting point of 135 to 137 °C.
Regarding `Cn1cc(C2=C(c3cn(CCCSC4=NCCS4)c4ccccc34)C(=O)NC2=O)c2ccccc21`, the melting point is 170 to 173 °C.
In turn, `O=S(=O)(c1ccccc1)N1CCC(C(=NCc2ccccc2)c2ccc(F)cc2)CC1` displayed a melting point of 153 to 155 °C.
With `Cn1c(COc2ccc(CC(OCc3ccc(F)cc3)C(=O)O)cc2)nc2ccc(Sc3cc(C(C)(C)C)c(O)c(C(C)(C)C)c3)cc21` (stereo unspecified), the melting point was in the range of 40 to 46 °C.
To `COC(=O)C1Cc2cc3c(cc2C(c2ccc([N+](=O)[O-])cc2)=NN1)OCO3` (stereo unspecified) belongs 161 to 164 °C.
`O=C1OCCN1CCN1CCN(C2Cc3cc(Cl)ccc3Oc3ccc(F)cc32)CC1` (stereo unspecified) showed a melting point of 180 to 182 °C.
Under `CC(O)(CCBr)c1ccc(-c2ccc(F)cc2)cc1` (stereo unspecified) stands 72 to 74 °C; under `CC(C)c1cc(C(=O)Nc2ccc(C(=O)O)c(Cl)c2)sc1C(C)C`, 222 to 223 °C.
Consider `COc1ccc(-n2c(C)nc3cnccc32)cc1OC1CCCC1`, for which the melting point was in the range of 144 to 145 °C.
Take `COc1ccc(-n2c(N)cc(=O)nc2SC)cc1`: the melting point lay within 182 to 186 °C.
To `O=C(CN1CCN(C(c2ccc(F)cc2)c2ccc(F)cc2)CC1)NC1(C(=O)O)Cc2ccc(-c3ccc(Cl)cc3)cc2C1` (stereo unspecified) belongs 184 °C; to `COc1cccc([C@@]23CCN(C)C[C@@H]2Cc2cc4ccccc4nc2C3)c1`, 154 to 156 °C; to `COc1ccc2[nH]c3c(c2c1)C[C@@]1(C)C(=O)N(CCN2CCOCC2)C(=O)N1[C@@H]3c1cccc(O)c1` (racemic), 260 to 263 °C.
In turn, `CNC(=O)NC(Cc1c[nH]c2ccccc12)C(=O)NCc1cc(C(F)(F)F)cc(C(F)(F)F)c1` (stereo unspecified) had a melting point of 213 to 215 °C.
`CCCC1=C(C(=O)OCC)C(c2cccc(C)c2Cl)c2c[nH]nc2N1` (stereo unspecified) displayed a melting point of 198 to 200 °C.
`Cn1cc(C2=C(c3c4n(c5ccccc35)CCC(C(N)=O)C4)C(=O)NC2=O)c2ccccc21` (stereo unspecified): the melting point lay within 315 to 316 °C.
To `COc1cc2oc(=O)c(CCO)c(C)c2cc1OC` belongs 184 to 187 °C; to `COc1ccc(-c2cc3cc(F)c(F)cc3[nH]2)cc1NC(=S)Nc1cccnc1`, 128 to 130 °C; to `CC1(C)[C@@H](CN2CCCC2)CC[C@@]1(C)NCC(=O)N1C[C@@H](F)C[C@H]1C#N`, 108 to 112 °C.
`Cc1cc(-c2ccnc(NCc3ccccc3)c2)n(-c2cccc(F)c2)n1` gave a melting point of 94 to 96 °C.
In the case of `COc1ccc(C2Sc3cc(Cl)c(Cl)cc3N(CCN(C)C)C(=O)C2O)cc1` (stereo unspecified), the melting point lay in the range of 178 to 180 °C.
Under `Cc1ccc(-c2nc(CI)c(C)o2)cc1` stands 104 to 105 °C; under `O=C(O)c1ccc(-c2c3ccccc3nn2Cc2ccccc2)cc1`, 159 to 163 °C; under `COc1cc(CCCC2SC(=O)NC2=O)ccc1OCc1coc(CCc2ccccc2)n1` (stereo unspecified), 126 to 127 °C.
As to `O=C(O)c1c[nH]c2c(=O)c3cc(Cl)ccc3oc2c1=O`, the melting point fell in the range of 325 to 327 °C.
Take `C=CC(C)(O)CN1CCC2(CC1)CSC1=C(O2)c2ccccc2C(=O)C1=O` (stereo unspecified): the melting point was in the range of 74 to 77 °C.
On to `CC(C)N(CCC(CCN(C(C)C)C(C)C)(C(N)=O)c1ccc(Cl)cc1)C(C)C`, for which the melting point was 113 to 115 °C.
Turning to `CN1C(C)(C)CC(C(O)CNc2nc(Cl)nc(NCC(O)C3CC(C)(C)N(C)C(C)(C)C3)n2)CC1(C)C` (stereo unspecified), the melting point was in the range of 166 to 176 °C.
`O=C(c1cc2[nH]nc(-c3cc4cc(CO)ccc4[nH]3)c2s1)N1CCN(c2ccc(F)cc2)CC1` displayed a melting point of 156 to 158 °C.
`CCOC(=O)C1=C(COCCNc2nccs2)NC(C)=C(C(=O)OC)C1c1ccccc1Cl` (stereo unspecified) returned a melting point of 134 °C.
To `N#Cc1ccc(OCC(O)CN2CC3CC(C2)CN(C(=O)Oc2ccc(F)cc2)C3)cc1` (stereo unspecified) belongs 145 to 146 °C; to `O=C1c2ccccc2C(=O)N1CCCOc1cccc2[nH]c3ccccc3c12`, 171 to 172 °C; to `CCCCOc1c(NCc2ccc(C#N)cc2Cl)c(=O)c1=O`, 148 to 149 °C.
`CN1C(=O)CN(NC(=O)CN)C(c2ccccc2)c2cc(Cl)ccc21` (stereo unspecified) returned a melting point of 173 to 175 °C.
On to `CC1(C)Oc2c([N+](=O)[O-])ccc(Cl)c2C1=O`, for which the melting point is 167 to 168 °C.
`CC(C)Oc1ccc(-c2nn([C@@H](C)c3oc4ccc(F)cc4c(=O)c3-c3cccc(F)c3)c3ncnc(N)c23)cc1F` came in with a melting point of 139 to 142 °C.
On to `Clc1ccc(-c2ccnc(Nc3nc4ccccc4[nH]3)n2)cn1`, for which the melting point was 308 to 311 °C.
`C1CCC(N2CCCC2)C2NCCCC2C1` (stereo unspecified) had a melting point of 30 to 35 °C.
In turn, `CC(C)(C)C(NC(=O)c1ccc(Cl)cc1)Nc1c(Nc2ccc(Cl)nc2)c(=O)c1=O` (stereo unspecified) had a melting point of 258 to 259 °C.
`CCSC(c1ccc(Cl)cc1)C(C(=O)C(C)(C)C)n1cncn1` (stereo unspecified) yielded a melting point of 154 °C.
Compound `O=C(NC1=NN(c2ccc(Cl)cc2)C(c2ccc(Cl)cc2)C1)C(F)(F)F` (stereo unspecified) showed a melting point of 138 to 140 °C.
For the compound `O=C1c2ccccc2COc2ccc(CC=NO)cc21`, the melting point is 132 to 134 °C.
To `CC(C)(NS(=O)(=O)c1ccc2oc3cc(Cl)ccc3c2c1)C(=O)NO` belongs 195 to 196 °C; to `C/C=C1\OC(=O)c2c(Oc3nc(OC)cc(OC)n3)cccc21`, 163 to 165 °C; to `C1=C(c2c[nH]c3c(C4CC4)cccc23)CCNC1`, 186 to 189 °C.
Under `CC1(C)SC(=O)NC1C(=O)NCCO[N+](=O)[O-]` (stereo unspecified) stands 98 to 100 °C; under `CCCCO[PH](=O)Cc1cc(C(C)(C)C)c(O)c(C(C)(C)C)c1` (stereo unspecified), 85 to 87 °C; under `CN1Cc2c(C#N)ncn2-c2sccc2C1=O`, 197 to 200 °C.
`CC(C)c1ccc2nc3ccc(C(=O)OCC#N)cn3c(=O)c2c1` had a melting point of 186 to 188 °C.
Consider `COC(=O)c1cncs1`, for which the melting point amounted to 68 °C.
To `COc1cccc(C(=O)NN2C(c3ccccc3)=NOC2(C)C)c1C` belongs 141 to 142 °C.
In the case of `O=C(O)c1c(-c2ccccc2)c2cc(Cl)c(Cl)cc2oc1=O`, the melting point was in the range of 233 to 234 °C.
Consider `OCc1cc(Cl)c(Cl)cc1CO`, for which the melting point is 128 to 136 °C.
The compound `CC(C)(C)C(=O)N1C(=O)C(C)(C)NC(C)(C)C1=O` came in with a melting point of 100 to 102 °C.
The compound `O=C1Nc2ccc(F)cc2C12COc1cc3c(cc12)CCO3` (stereo unspecified) gave a melting point of 257 to 259 °C.
Compound `CNc1cc(Oc2ccc(Cl)cc2Cn2ccnc2)ccc1[N+](=O)[O-]` yielded a melting point of 130 °C.
For `O=C1CC(c2ccc3oc4c(c3c2)CCCC4)CC(=O)N1`, the melting point fell in the range of 184 to 193 °C.
On to `Cc1c(C(F)(F)C(F)(F)F)oc2c(C=O)cccc12`, for which the melting point was 78 °C.
For `CCCCC(C(=O)OCC)=C(Nc1cccc(SC)c1)C(=O)OCC`, the melting point is 55 °C.
The compound `CC(C)(C)c1ccc(/C=C/C(=O)Nc2cccc(OCC(=O)O)c2)cc1` gave a melting point of 166 to 172 °C.
Regarding `CN(c1ccc(OC(F)(F)F)cc1)c1cc(C(F)(F)F)nc(NN=Cc2ccc(OC(F)(F)F)cc2)n1`, the melting point is 180 to 182 °C.
`COc1cc(C(C)C)ccc1C1(NC(=O)OC(C)C)C(=O)c2ccccc2C1=O` gave a melting point of 159 to 161 °C.
`COc1ccc(C2CCN(c3c(C)c(C)c4c(c3C)C(c3ccsc3)C(C)(C)O4)CC2)cc1OC` (stereo unspecified) came in with a melting point of 111 to 113 °C.
Regarding `COc1c(C)c2c(c(NS(C)(=O)=O)c1C/C=C(\C)CCC(=O)O)C(=O)OC2`, the melting point lay in the range of 170 to 176 °C.
The compound `CC(=O)OCC1OC(n2c(=O)sc3c(Cl)nc(N)nc32)C(OC(C)=O)C1OC(C)=O` (stereo unspecified) displayed a melting point of 101 to 103 °C.
Under `O=C(C1CC1)N1CCC2(CC1)OC(c1ccccc1)C1CCCCN12` (stereo unspecified) stands 110 to 114 °C; under `Cc1cccc(C)c1NC(=O)NC1(c2ccccc2)CCCC1`, 227 to 229 °C.
In turn, `Cn1c(C(F)(F)F)cc(=O)n(-c2ccc(Cl)cc2O)c1=O` returned a melting point of 198 to 202 °C.
Under `Cc1c(O)ccc2cc(Br)ccc12` stands 127 to 129 °C.
`Nc1nc(O)c2c(n1)NC[C@H](CCc1ccc(Br)cc1)C2` yielded a melting point of 275 to 283 °C.
The compound `COc1ccc(-c2[nH]nc3c2C(=O)c2c(NC(=O)Cc4ccc(N)cc4)cccc2-3)cc1` yielded a melting point of 283 °C.
